Measurements taken from paper PMC3062964, “Biomolecular Interaction Study of Cyclolinopeptide A with Human Serum Albumin” (Journal of Biomedicine and Biotechnology, 2011).
Peptide text beside a SMILES is read from it.

Key:
[1] = target: T1, Human Serum Albumin (HSA, fatty acid free) (Homo sapiens, UniProt P02768); test: SPR binding of CLP-A to immobilized HSA; details: for Kd: Kd = 1/Ka, SPR; for Kd / Ka: 1X PBS pH 7.4, 5% DMSO; for Ka: SPR (BiacoreX, CM5 chip, HSA 9–11 kRU), CLP-A 50–200 μM injected in triplicate, dose-response fitted with rectangular hyperbola, global Rmax 2000, standard error of curve-fitting in brackets
T1 construct: purchased Sigma (Oakville, ON)
T1 sequence (P02768 25-609): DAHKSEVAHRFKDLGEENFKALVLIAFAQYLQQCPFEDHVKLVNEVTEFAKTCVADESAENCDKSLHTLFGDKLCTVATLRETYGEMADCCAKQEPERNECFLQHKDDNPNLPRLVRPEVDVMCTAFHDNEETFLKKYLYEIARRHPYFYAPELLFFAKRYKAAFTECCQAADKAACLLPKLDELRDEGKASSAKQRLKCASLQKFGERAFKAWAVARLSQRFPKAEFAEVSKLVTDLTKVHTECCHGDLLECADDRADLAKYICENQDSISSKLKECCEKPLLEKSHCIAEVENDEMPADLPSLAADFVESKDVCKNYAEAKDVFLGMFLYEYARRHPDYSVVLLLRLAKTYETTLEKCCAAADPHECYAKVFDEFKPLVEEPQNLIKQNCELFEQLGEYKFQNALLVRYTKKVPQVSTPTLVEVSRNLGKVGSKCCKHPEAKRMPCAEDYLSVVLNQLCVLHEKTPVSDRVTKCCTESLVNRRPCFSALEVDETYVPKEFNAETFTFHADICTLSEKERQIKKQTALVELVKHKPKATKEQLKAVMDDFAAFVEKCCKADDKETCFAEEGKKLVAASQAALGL
Experimental: Running buffer for all experiments was prepared by diluting a 10X phosphate-buffered saline (PBS) stock solution (100 mM phosphate buffer, 20.7 mM KCl, 1370 mM NaCl, pH 6.7) to a 1X PBS, pH 7.4 solution containing 5% DMSO. Running buffers were filtered and degassed daily before use.
Analyte solutions containing the CLP-A peptides were prepared by diluting the stock solution (10 mM in DMSO) into 1.05X PBS, giving a final 1X PBS, pH 7.4 buffer containing 5% DMSO (same as the running buffer).
All SPR measurements were performed at different temperatures using a BiacoreX instrument equipped with a research-grade CM5 carboxylated-dextran sensor chip (Biacore). The fluidic unit of the instrument was cleaned prior to experiments using the DESORB method (injections of 0.5% sodium dodecyl sulphate, followed by 50 mM glycine, pH 9.5) equipped in the instrument's software. On some occasions a “SUPER-CLEAN” method was also used (injections of 1% CH3COOH, 1 M NaHCO3, 10 mM HCl, and 6 M GndHCl).
The carboxylated-dextran sensor chips were preconditioned prior to HSA immobilization by priming the instrument 3 times with HBS-EP buffer, followed by 3 successive 1 min injections of 50 mM NaOH at 50 μL min^−1. HSA was covalently immobilized onto a CM5 sensor surface at 25°C using standard amine-coupling chemistry. Flow cell 1 (Fc1) and flow cell 2 (Fc2) were activated by a 7 min injection of a 1 : 1 mixture of 0.1 M NHS and 0.4 M EDC using a flow rate of 5 μL min^−1. Immediately after activation, HSA (30 μg mL^−1, 10 mM acetate buffer pH 5.3) was immobilized onto Fc2. A 7 min injection of 1 M EA (pH 8.5) was conducted over Fc1 and Fc2 to deactivate the surfaces. The final HSA concentration immobilized onto the chip was 9–11 kRU.
CLP-A solutions (50–200 μM) were injected in triplicate and flowed over reference and HSA surfaces for 2 min at a flow rate of […], followed by a dissociation phase of 3 min for all experimental temperatures. At the end of the CLP-A injection, the flowing solution was switched to the running buffer until the response returned to the original baseline. Instances where the baseline was not readily achieved, a short pulse of 50% (v/v) DMSO solution was injected at high flow rate to remove any remaining CLP-A. Data were collected at a rate of 5 Hz and processed using the BiaEvaluation V4.2 software. The equilibrium constant, Ka, was determined using the rectangular hyperbola equation [20]:
(1) Req=Rmax Ka[CLP-A]/1+Ka[CLP-A], where Req, Rmax, [CLP-A] are the measured response values, the binding site saturation value, and the concentration of CLP-A, respectively. Curve-fitting was done with Microcal Origin V7.1 using a global Rmax value of 2000.
CLP-A concentration was limited to below 200 μM due to the solubility of the peptide in the buffer. The affinity of interaction was estimated by first assuming that HSA-binding sites were equally available and second that only high affinity sites were occupied in the working concentration range [24]. The Kd and Ka values indicate that affinity increases as the temperature increased. […] To further elucidate the HSA/CLP-A interaction, thermodynamic parameters are extracted using the van't Hoff equation (2) ln Kd=ΔH/R(1/T)−ΔS/R, where R = 8.314 J mol^−1 K^−1. This yields ΔH and ΔS for the interaction to be 204 kJ mol^−1 and 746 J mol^−1 K^−1 respectively. The binding is overall endothermic. This indicates an association with the hydrophobic pockets of HSA and the opening of binding sites. Moreover, DMSO has been used to assist the solubility. Therefore, the entire solvation complex consisting of CLP-A, DMSO and H2O requires energy to expose the binding site. This energy plus the binding energy for interaction in the hydrophobic pockets of HSA result in an overall endothermic process. The large entropy of the endothermic process clearly indicate that binding is entropy-driven. This is due to contribution from breaking of the solvation complex and hydrophobic binding.

HSA = target: T2, HSA (Homo sapiens, UniProt P02768); test: Far-UV circular dichroism, secondary structure of HSA upon CLP-A binding; details: HSA 18 μM + CLP-A 50 μM, 10 mM PBS, 5% DMSO, pH 7.4, room temperature, far-UV CD, CDNN V2.1, 210–260 nm
T2 construct: purchased Sigma (Oakville, ON)
T2 sequence (P02768 25-609): as above
Experimental: CD measurements of HSA (18 μM), HSA/CLP-A (18 μM, 50 μM) in 10 mM PBS, 5% DMSO, pH = 7.4 buffer were made with a Pistar-180 CD spectrometer (Applied Photophysics Ltd., Leatherhead, UK) at room temperature. The far-UV region was scanned from 260–180 nm in 0.5 nm steps at a scan rate of 10 nm min^−1 and a bandwidth of 6 nm using a 0.010 cm optical pathlength quartz cuvette. The secondary structure was estimated using the neural network deconvolution software CDNN V2.1 [22]. The near-UV region was scanned from 350–250 nm in 0.5 nm steps at a scan rate of 10 nm min^−1, and a bandwidth of 2 nm using a 10 mm optical pathlength cuvette.
In order to assess if any conformational changes were present upon CLP-A complexation with HSA, we compared the far-UV and near-UV CD spectra of HSA and HSA/CLP-A in the running buffer used in the Biacore experiments shown in Figure 5. CD spectra taken in the far-UV spectral region provide insight to the secondary structure of a protein. […] This region of the spectra corresponds to signals from the phenylalanine, tyrosine, and tryptophan residues on the protein and it provides insight to changes in the tertiary structure of the protein.

SMILES: CC[C@H](C)[C@@H]1NC(=O)[C@H](CC(C)C)NC(=O)[C@H](Cc2ccccc2)NC(=O)[C@H](Cc2ccccc2)NC(=O)[C@@H]2CCCN2C(=O)[C@@H]2CCCN2C(=O)[C@H](C(C)C)NC(=O)[C@H](CC(C)C)NC(=O)[C@H]([C@@H](C)CC)NC1=O [CLP-A, Cyclolinopeptide A] (cyclo(FFLIILVPP))
- Kd ([1]; 20°C): 1320 µM
- Ka ([1]; 20°C): 757 (33) M^−1
- Kd ([1]; 25°C): 593 µM
- Ka ([1]; 25°C): 1687 (20) M^−1
- Kd ([1]; 30°C): 142 µM
- Ka ([1]; 30°C): 7056 (36) M^−1
- Kd ([1]; 37°C): 20 µM
- Ka ([1]; 37°C): 50032 (1792) M^−1
- recognition kinetics of binding to the HSA-binding site ([1]; SPR sensorgrams, 50–200 μM, 20–37°C, gradual increase of response to steady state during injection): very slow recognition kinetics
- Secondary structure of HSA/CLP-A: Parallel (HSA; HSA alone 6): 6%
- Secondary structure of HSA/CLP-A: Antiparallel (HSA; HSA alone 8): 9%
- Secondary structure of HSA/CLP-A: Beta-Turn (HSA; HSA alone 15): 16%
- Secondary structure of HSA/CLP-A: Rndm. Coil (HSA; HSA alone 27): 29%
- Secondary structure of HSA/CLP-A: Helix (HSA; HSA alone 46): 41%
